Data on 2 compounds can be found in PMC7041630 (Experimental neurology, 2018).

Series [1] relates to LRRK2. The note with it: ref Fell et al., 2015, Henderson et al., West; cited from earlier work.
The nature of series [2]: Liver microsome stability assay. The format is in vitro ADME, macaque. The note with it: 2 μM compound, 0.5 mg mL−1 microsomes, with NADPH, one hour. On the technique in general: Liver microsomes are vesicles of endoplasmic reticulum, rich in cytochrome P450 enzymes.
Series [3] has as its system pT73-Rab10 in mouse macrophages. Kind of series: Ex vivo pT73-Rab10 western blot, mouse macrophages. The note with it: 100 nM, two hours. The class given is cell-based.
For series [4], the system named is WT-LRRK2. The format is in vivo, rat. The note with it: non-transgenic rats; for phospho-LRRK2 in total protein lysates from kidney: higher concentrations of inhibitor; for total LRRK2 protein in the brain: higher concentrations, three days; for total LRRK2 protein in the lung (normalized to HSC70): three days of drug treatment.
Series [5] has as its system pT73-Rab10 in human PBMCs. Kind of series: Ex vivo pT73-Rab10 western blot, human PBMCs. The class given is cell-based. The note with it: 100 nM, two hours. Background: A western blot detects proteins with antibodies after separation by electrophoresis.
The nature of series [6]: Single-dose IV/PO pharmacokinetics in rats. The class given is in vivo, rat. The note with it: for bioavailability: oral dosing, 1% methylcellulose vehicle.
In series [7] the test system is pT73-Rab10 in human neutrophils. Kind of series: Ex vivo pT73-Rab10 western blot, human neutrophils. The class given is cell-based. The note with it: 100 nM, two hours.
Series [8] can be described thus: Drug properties. The class given is physicochemical.
In series [9] the target is recombinant human WT-LRRK2 (Homo sapiens, UniProt Q5S007). Kind of series: LanthaScreen LRRKtide phosphorylation assay, WT-LRRK2. The format is biochemical. The note with it: LanthaScreen at Km,app(ATP). On the technique in general: In TR-FRET formats the signal depends on donor and acceptor labels being close together.
Sequence of recombinant human WT-LRRK2 (Q5S007 whole entry): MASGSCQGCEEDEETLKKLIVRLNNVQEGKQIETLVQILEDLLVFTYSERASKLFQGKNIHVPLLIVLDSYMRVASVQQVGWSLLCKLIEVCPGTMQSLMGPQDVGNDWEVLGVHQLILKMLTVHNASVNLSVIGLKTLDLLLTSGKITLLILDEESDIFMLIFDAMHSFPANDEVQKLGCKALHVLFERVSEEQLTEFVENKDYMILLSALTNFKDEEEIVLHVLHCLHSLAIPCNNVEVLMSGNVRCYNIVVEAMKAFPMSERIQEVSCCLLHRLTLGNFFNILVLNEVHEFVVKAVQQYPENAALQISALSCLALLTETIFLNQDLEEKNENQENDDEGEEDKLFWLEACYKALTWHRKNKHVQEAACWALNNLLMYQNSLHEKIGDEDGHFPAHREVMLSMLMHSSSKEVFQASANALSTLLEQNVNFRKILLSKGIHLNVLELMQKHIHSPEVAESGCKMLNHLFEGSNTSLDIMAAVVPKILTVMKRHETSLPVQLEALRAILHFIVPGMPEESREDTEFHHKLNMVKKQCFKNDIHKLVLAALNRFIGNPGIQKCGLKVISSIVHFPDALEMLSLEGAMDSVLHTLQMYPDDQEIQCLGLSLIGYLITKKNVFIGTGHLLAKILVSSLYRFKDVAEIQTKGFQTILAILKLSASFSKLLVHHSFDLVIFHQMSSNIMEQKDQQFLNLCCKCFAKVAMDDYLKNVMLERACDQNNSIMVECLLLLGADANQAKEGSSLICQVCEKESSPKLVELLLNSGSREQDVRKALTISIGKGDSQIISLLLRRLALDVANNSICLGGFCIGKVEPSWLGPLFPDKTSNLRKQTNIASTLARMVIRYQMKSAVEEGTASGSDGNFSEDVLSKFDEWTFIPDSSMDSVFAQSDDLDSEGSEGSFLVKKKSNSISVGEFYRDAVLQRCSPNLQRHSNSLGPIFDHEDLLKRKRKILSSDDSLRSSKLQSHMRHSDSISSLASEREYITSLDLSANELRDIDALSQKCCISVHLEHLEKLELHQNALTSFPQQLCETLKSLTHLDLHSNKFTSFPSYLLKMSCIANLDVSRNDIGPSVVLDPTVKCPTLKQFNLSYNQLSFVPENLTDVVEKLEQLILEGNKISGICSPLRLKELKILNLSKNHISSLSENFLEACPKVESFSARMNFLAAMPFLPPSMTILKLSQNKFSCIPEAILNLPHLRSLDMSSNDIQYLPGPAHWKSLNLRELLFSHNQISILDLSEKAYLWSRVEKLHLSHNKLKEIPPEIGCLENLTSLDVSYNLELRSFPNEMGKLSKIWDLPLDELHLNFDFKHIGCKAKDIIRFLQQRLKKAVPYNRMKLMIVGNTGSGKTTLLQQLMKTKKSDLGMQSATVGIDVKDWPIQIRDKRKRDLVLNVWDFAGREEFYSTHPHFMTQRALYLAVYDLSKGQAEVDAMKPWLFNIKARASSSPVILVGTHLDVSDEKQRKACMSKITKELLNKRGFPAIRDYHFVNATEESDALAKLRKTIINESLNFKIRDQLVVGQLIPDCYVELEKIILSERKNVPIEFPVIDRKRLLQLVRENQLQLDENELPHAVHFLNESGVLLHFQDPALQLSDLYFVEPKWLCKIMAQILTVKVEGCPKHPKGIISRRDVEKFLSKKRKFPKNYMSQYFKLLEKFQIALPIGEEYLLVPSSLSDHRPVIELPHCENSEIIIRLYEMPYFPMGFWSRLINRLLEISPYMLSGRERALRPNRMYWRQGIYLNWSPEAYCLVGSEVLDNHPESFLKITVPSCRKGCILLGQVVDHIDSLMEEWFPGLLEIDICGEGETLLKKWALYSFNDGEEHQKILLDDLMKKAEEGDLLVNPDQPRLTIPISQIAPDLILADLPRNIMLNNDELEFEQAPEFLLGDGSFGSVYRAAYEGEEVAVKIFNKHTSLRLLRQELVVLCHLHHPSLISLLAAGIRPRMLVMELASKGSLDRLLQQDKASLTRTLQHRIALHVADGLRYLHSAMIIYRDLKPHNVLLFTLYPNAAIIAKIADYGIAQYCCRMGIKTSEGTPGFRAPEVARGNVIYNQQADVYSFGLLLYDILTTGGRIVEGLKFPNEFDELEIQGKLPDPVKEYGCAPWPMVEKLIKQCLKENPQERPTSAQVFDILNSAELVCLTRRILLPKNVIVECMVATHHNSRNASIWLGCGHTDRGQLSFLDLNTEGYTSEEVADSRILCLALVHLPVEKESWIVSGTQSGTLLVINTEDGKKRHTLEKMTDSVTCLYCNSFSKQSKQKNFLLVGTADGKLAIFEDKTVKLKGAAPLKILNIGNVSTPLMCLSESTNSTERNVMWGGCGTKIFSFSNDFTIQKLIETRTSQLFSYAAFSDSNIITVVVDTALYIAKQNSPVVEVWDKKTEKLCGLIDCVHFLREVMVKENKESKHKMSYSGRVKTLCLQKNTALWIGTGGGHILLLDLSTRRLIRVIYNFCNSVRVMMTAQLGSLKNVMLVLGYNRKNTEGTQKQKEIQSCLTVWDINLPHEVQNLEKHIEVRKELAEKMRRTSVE
Series [10] is described as follows: In-diet dosing, plasma drug levels in rats. The class given is in vivo, rat. The conditions noted are these: chow up to 1050 mg kg−1.

As for `C[C@@H]1CN(c2cc(-c3n[nH]c4ccc(OC5(C)CC5)cc34)ncn2)C[C@H](C)O1` [MLi2], in [1], the binding in vitro entry was “low to sub-nanomolar”. Also, the “microsomal stability, compound remaining” value in series [2] is “no significant concentrations of compound left after one-hour incubation”. In addition, the pT73-Rab10 signal entry in series [3] was “virtually eliminated pT73-Rab10 signal”. In addition, in series [4], the “phospho-LRRK2 in total protein lysates from kidney” value was “essentially no phospho-LRRK2 remaining”, the “total LRRK2 protein in the brain” value was “did not show these trends” and the “total LRRK2 protein in the lung (normalized to HSC70)” value is given as “did not reduce”. Further, in [5], the pRab10 signal result is on record as “could not observe a reliable reduction in pRab10”. Also, in series [6], the brain penetrant is given as ~ 75% and the bioavailability is given as ~ 40%. Besides, the pT73-Rab10 signal result in [7] is listed as “virtually eliminated pT73-Rab10 signal”. The aqueous solubility entry in series [8] (compared to PF-360) is recorded as “poor”.

Take `Cn1cc(-c2c[nH]c3ncnc(N4CCOCC4)c23)cc1C#N` [PF-360]: the binding in vitro result in [1] was “low to sub-nanomolar”. Also, the “microsomal stability, compound remaining” value in [2] is “no significant concentrations of compound left after one-hour incubation”. Further, in series [4], the “phospho-LRRK2 in total protein lysates from kidney” value is “essentially no phospho-LRRK2 remaining”, the “total LRRK2 protein in the brain” value was “reduce total LRRK2 protein in the brain nearly to the same extent as reducing the amount of phosphorylated LRRK2 protein” and the “total LRRK2 protein in the lung (normalized to HSC70)” value was “did not reduce”. In series [6], the “brain-to-plasma ratio (total compound)” value came out at 0.48±0.03 and the bioavailability is listed as ~ 40%. In addition, the “correlation of plasma to brain concentrations (r)” value in series [6] (total compound) turned out to be 0.89. In series [9], the “more potent in blocking LRRKtide phosphorylation than autophosphorylation” value was ~ 1 order of magnitude. Moreover, the “highest plasma concentration achieved with in-diet dosing” value in [10] was at most 100 nM. Further, the lipophilicity entry in [8] (compared to MLi2) was “lower lipophilicity”.
